# Target: T1, BenM (Acinetobacter baylyi, UniProt O68014)
# T1 construct: expressed in transfected cells; host or cells: Saccharomyces cerevisiae CEN.PK113-5A, chromosomal integration; promoters TDH3p, TEF1p, RNR2p or REV1p
# Experiment: CCM-induced GFP expression in yeast strains combining BenM expression cassettes and CYC1p reporter promoter variants (flow cytometry)
# Type: cell-based, Saccharomyces cerevisiae
# Settings: for FC (+/−CCM): 1.4 mM CCM, 24 h
# Description: Strains, chemicals and media. Saccharomyces cerevisiae CEN.PK102-5B (MATa ura3-52 his3Δ1 leu2-3/112 MAL2-8^c SUC2), CEN.PK113-5A (MATa, trp1 his3Δ1 leu2-3/112 MAL2-8^c SUC2) and CEN.PK113-7D (wild type, MATa MAL2-8^c SUC2) strains were obtained from Peter Kotter (Johann Wolfgang Goethe-University Frankfurt, Germany). In principal any other yeast strains may be used, such as one obtained from public repository EuroScarf. EasyClone plasmids used in this work are described in Jensen, N. B. et al. EasyClone: method for iterative chromosomal integration of multiple genes in Saccharomyces cerevisiae. FEMS Yeast Res. 14, 238-48 (2014). Escherichia coli strain DH5a was used as a host for cloning and plasmid propagation. The chemicals and Pfu TURBO DNA polymerase were commercially obtained (Sigma-Aldrich and Agilent Technologies Inc., respectively). All acids used were >97% in purity. S. cerevisiae cells were grown at 30° C. in synthetic complete medium as well as drop-out media and agar plates were prepared using pre-mixed drop-out powders (Sigma-Aldrich). Mineral medium was freshly prepared as described previously. For all media containing diacids, 1.4 mM of the individual diacids were dissolved in mineral medium and pH adjusted to 4.5 before sterile filtration. For CCM several dilutions were made to examine the performance of the CCM biosensor. For naringenin, mineral medium was supplemented with 0, 0.05, 0.10 or 0.20 mM naringenin, dissolved in ethanol, the final ethanol concentration for each medium was 2% (v/v), and the final pH of the medium was adjusted to 6.0. E. coli cells were grown at 37° C. in Luria-Bertani (LB) medium supplemented with 100 μg/mL ampicillin.
# Events were analyzed using FlowJo software (TreeStar Inc.).
# [1] = strain MeLS0162, RNR2p-BenM + 249bp_CYC1p:GFP
# [2] = strain MeLS0163, RNR2p-BenM + 209bp_CYC1p:GFP
# [3] = strain MeLS0164, TDH3p-BenM + 491bp_CYC1p:GFP
# [4] = strain MeLS0165, TDH3p-BenM + 272bp_CYC1p:GFP
# [5] = strain MeLS0166, TDH3p-BenM + 249bp_CYC1p:GFP
# [6] = strain MeLS0167, TDH3p-BenM + 209bp_CYC1p:GFP
# [7] = strain MeLS0168, TEF1p-BenM + 491bp_CYC1p_BenO_T1:GFP
# [8] = strain MeLS0169, TEF1p-BenM + 249bp_CYC1p_BenO_T1:GFP
# [9] = strain MeLS0170, RNR2p-BenM + 491bp_CYC1p_BenO_T1:GFP
# [10] = strain MeLS0171, RNR2p-BenM + 249bp_CYC1p_BenO_T1:GFP
# [11] = strain MeLS0172, TDH3p-BenM + 491bp_CYC1p_BenO_T1:GFP
# [12] = strain MeLS0173, TDH3p-BenM + 249bp_CYC1p_BenO_T1:GFP
# [13] = strain MeLS0182, TEF1p-BenM + 272bp_CYC1p_BenO_T2:GFP
# [14] = strain MeLS0183, TEF1p-BenM + 272bp_CYC1p_BenO_T1/T2:GFP
# [15] = strain MeLS0184, TEF1p-BenM + 249bp_CYC1p_BenO_T2:GFP
# [16] = strain MeLS0185, TEF1p-BenM + 249bp_CYC1p_BenO_T1/T2:GFP
# [17] = strain MeLS0186, REV1p-BenM + 272bp_CYC1p_BenO_T2:GFP
# [18] = strain MeLS0187, REV1p-BenM + 272bp_CYC1p_BenO_T1/T2:GFP
# [19] = strain MeLS0188, REV1p-BenM + 249bp_CYC1p_BenO_T2:GFP
# [20] = strain MeLS0189, REV1p-BenM + 249bp_CYC1p_BenO_T1/T2:GFP
# [21] = strain MeLS0190, TDH3p-BenM + 272bp_CYC1p_BenO_T2:GFP
# [22] = strain MeLS0191, TDH3p-BenM + 272bp_CYC1p_BenO_T1/T2:GFP
# [23] = strain MeLS0192, TDH3p-BenM + 249bp_CYC1p_BenO_T2:GFP
# [24] = strain MeLS0193, TDH3p-BenM + 249bp_CYC1p_BenO_T1/T2:GFP
# [25] = strain MeLS0195, RNR2p-BenM + 272bp_CYC1p_BenO_T1/T2:GFP
# [26] = strain MeLS0196, RNR2p-BenM + 249bp_CYC1p_BenO_T2:GFP
# [27] = strain MeLS0197, RNR2p-BenM + 249bp_CYC1p_BenO_T1/T2:GFP
# [28] = strain MeLS0263, TDH3p-BenM + 491bp_CYC1p_BenO_T2:GFP
# [29] = strain MeLS0264, TDH3p-BenM + 209bp_CYC1p_BenO_T2:GFP
# [30] = strain MeLS0265, RNR2p-BenM + 491bp_CYC1p_BenO_T2:GFP
# [31] = strain MeLS0266, RNR2p-BenM + 209bp_CYC1p_BenO_T2:GFP
# [32] = strain MeLS0267, TDH3p-BenM + 491bp_CYC1p_BenO_T1/T2:GFP
# [33] = strain MeLS0268, TDH3p-BenM + 209bp_CYC1p_BenO_T1/T2:GFP
# [34] = strain MeLS0269, RNR2p-BenM + 491bp_CYC1p_BenO_T1/T2:GFP
# [35] = strain MelS0194, RNR2p-BenM + 272bp_CYC1p_BenO_T2:GFP
# T1 sequence (O68014 whole entry): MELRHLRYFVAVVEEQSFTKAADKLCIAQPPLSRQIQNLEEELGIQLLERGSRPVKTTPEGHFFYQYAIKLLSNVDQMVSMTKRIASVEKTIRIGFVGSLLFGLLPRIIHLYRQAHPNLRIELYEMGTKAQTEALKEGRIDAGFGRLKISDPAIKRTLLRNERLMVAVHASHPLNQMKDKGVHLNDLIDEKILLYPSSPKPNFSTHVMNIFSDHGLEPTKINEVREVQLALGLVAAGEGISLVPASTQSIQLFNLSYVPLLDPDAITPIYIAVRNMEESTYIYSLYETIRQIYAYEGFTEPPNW
compound,measurement,setting,value
"O=C(O)/C=C\C=C/C(=O)O [CCM, cis, cis-muconic acid]","Mean fluorescense intensities of GFP (24 h), CCM (1.4 mM)",[1],164
same,FC (+/−CCM),[1],1.121
same,"Mean fluorescense intensities of GFP (24 h), CCM (1.4 mM)",[2],164
same,FC (+/−CCM),[2],1.121
same,"Mean fluorescense intensities of GFP (24 h), CCM (1.4 mM)",[3],4509
same,FC (+/−CCM),[3],1.126
same,"Mean fluorescense intensities of GFP (24 h), CCM (1.4 mM)",[4],216
same,FC (+/−CCM),[4],1.157
same,"Mean fluorescense intensities of GFP (24 h), CCM (1.4 mM)",[5],205
same,FC (+/−CCM),[5],1.131
same,"Mean fluorescense intensities of GFP (24 h), CCM (1.4 mM)",[6],194
same,FC (+/−CCM),[6],1.09
same,"Mean fluorescense intensities of GFP (24 h), CCM (1.4 mM)",[7],20250
same,FC (+/−CCM),[7],1.312
same,"Mean fluorescense intensities of GFP (24 h), CCM (1.4 mM)",[8],2913
same,FC (+/−CCM),[8],4.337
same,"Mean fluorescense intensities of GFP (24 h), CCM (1.4 mM)",[9],6114
same,FC (+/−CCM),[9],1.089
same,"Mean fluorescense intensities of GFP (24 h), CCM (1.4 mM)",[10],290
same,FC (+/−CCM),[10],1.549
same,"Mean fluorescense intensities of GFP (24 h), CCM (1.4 mM)",[11],10605
same,FC (+/−CCM),[11],1.538
same,"Mean fluorescense intensities of GFP (24 h), CCM (1.4 mM)",[12],3554
same,FC (+/−CCM),[12],4.707
same,"Mean fluorescense intensities of GFP (24 h), CCM (1.4 mM)",[13],211
same,FC (+/−CCM),[13],1.155
same,"Mean fluorescense intensities of GFP (24 h), CCM (1.4 mM)",[14],511
same,FC (+/−CCM),[14],1.969
same,"Mean fluorescense intensities of GFP (24 h), CCM (1.4 mM)",[15],475
same,FC (+/−CCM),[15],1.653
same,"Mean fluorescense intensities of GFP (24 h), CCM (1.4 mM)",[16],9992
same,FC (+/−CCM),[16],3.797
same,"Mean fluorescense intensities of GFP (24 h), CCM (1.4 mM)",[17],197
same,FC (+/−CCM),[17],1.201
same,"Mean fluorescense intensities of GFP (24 h), CCM (1.4 mM)",[18],370
same,FC (+/−CCM),[18],1.789
same,"Mean fluorescense intensities of GFP (24 h), CCM (1.4 mM)",[19],194
same,FC (+/−CCM),[19],1.215
same,"Mean fluorescense intensities of GFP (24 h), CCM (1.4 mM)",[20],181
same,FC (+/−CCM),[20],1.22
same,"Mean fluorescense intensities of GFP (24 h), CCM (1.4 mM)",[21],218
same,FC (+/−CCM),[21],1.088
same,"Mean fluorescense intensities of GFP (24 h), CCM (1.4 mM)",[22],691
same,FC (+/−CCM),[22],1.892
same,"Mean fluorescense intensities of GFP (24 h), CCM (1.4 mM)",[23],978
same,FC (+/−CCM),[23],1.761
same,"Mean fluorescense intensities of GFP (24 h), CCM (1.4 mM)",[24],1630
same,FC (+/−CCM),[24],4.004
same,"Mean fluorescense intensities of GFP (24 h), CCM (1.4 mM)",[25],199
same,FC (+/−CCM),[25],1.238
same,"Mean fluorescense intensities of GFP (24 h), CCM (1.4 mM)",[26],349
same,FC (+/−CCM),[26],1.575
same,"Mean fluorescense intensities of GFP (24 h), CCM (1.4 mM)",[27],256
same,FC (+/−CCM),[27],1.571
same,"Mean fluorescense intensities of GFP (24 h), CCM (1.4 mM)",[28],1197
same,FC (+/−CCM),[28],1.898
same,"Mean fluorescense intensities of GFP (24 h), CCM (1.4 mM)",[29],527
same,FC (+/−CCM),[29],1.495
same,"Mean fluorescense intensities of GFP (24 h), CCM (1.4 mM)",[30],698
same,FC (+/−CCM),[30],1.513
same,"Mean fluorescense intensities of GFP (24 h), CCM (1.4 mM)",[31],179
same,FC (+/−CCM),[31],1.072
same,"Mean fluorescense intensities of GFP (24 h), CCM (1.4 mM)",[32],2218
same,FC (+/−CCM),[32],2.64
same,"Mean fluorescense intensities of GFP (24 h), CCM (1.4 mM)",[33],2172
same,FC (+/−CCM),[33],3.25
same,"Mean fluorescense intensities of GFP (24 h), CCM (1.4 mM)",[34],2589
same,FC (+/−CCM),[34],2.005
same,"Mean fluorescense intensities of GFP (24 h), CCM (1.4 mM)",[35],258
same,FC (+/−CCM),[35],1.065
same,specificity of GFP induction among diacids tested,"wild-type BenM, diacids 1.4 mM, pH 4.5, 24 h",induce GFP expression specifically in response to CCM

# Source: patent publication US20190185865A1, “USE OF PROKARYOTIC TRANSCRIPTIONAL ACTIVATORS AS METABOLITE BIOSENSORS IN EUKARYOTIC CELLS” (Danmarks Tekniske Universitet, priority 2016, published 2019)
